Data: DBAASP
Converted amounts (≈) assume the structure as drawn.

Key:
Assay in all cases: ≥ marks a high value that may be exact or a test limit, other limits are often not marked, values filed in µg/mL are converted to µM
[1] = test system: Candida albicans ATCC 2002
[2] = test system: Escherichia coli ATCC 25922
[3] = test system: Pseudomonas aeruginosa CMCCB 10104
[4] = test system: Staphylococcus aureus ATCC 25923

MIC [1] [µM] | MIC [2] [µM] | MIC [3] [µM] | MIC [4] [µM] | Structure (SMILES)
1.21 (≈ 3.8 µg/mL) | 2.39 (≈ 7.5 µg/mL) | 2.39 (≈ 7.5 µg/mL) | 1.21 (≈ 3.8 µg/mL) | CC[C@H](C)[C@@H]1NC(=O)[C@H](CCCCN)NC(=O)[C@@H](NC(=O)[C@H](CCCCN)NC(=O)[C@H](CC(C)C)NC(=O)[C@H](CC(N)=O)NC(=O)[C@H](CC(=O)O)NC(=O)[C@H](CC(C)C)NC(=O)[C@H](CC(C)C)NC(=O)[C@@H](NC(=O)[C@@H](NC(=O)[C@H](C)NC(=O)[C@H](CCSC)NC(=O)[C@H](CC(N)=O)NC(=O)[C@H](CCCCN)NC(=O)[C@H](C)NC(=O)[C@@H](NC(=O)[C@H](CC(N)=O)NC(=O)[C@H](CCCCN)NC(=O)[C@H](C)NC(=O)[C@@H](NC(=O)[C@H](CC(=O)O)NC(=O)[C@H](CCSC)NC(=O)[C@H](Cc2ccccc2)NC(=O)CN)[C@@H](C)O)C(C)C)C(C)C)[C@@H](C)O)CSSC[C@@H](C(=O)O)NC(=O)[C@H](C)NC(=O)[C@H](CCCCN)NC(=O)[C@H]([C@@H](C)O)NC1=O [GFMDTAKNVAKNMAVTLLDNLKCKITKAC]
2.09 (≈ 8.1 µg/mL) | 2.09 (≈ 8.1 µg/mL) | 4.18 (≈ 16.2 µg/mL) | 1.06 (≈ 4.1 µg/mL) | CC[C@H](C)[C@H](NC(=O)[C@H](CC(C)C)NC(=O)[C@H](CCC(N)=O)NC(=O)[C@@H](NC(=O)[C@H](C)NC(=O)CNC(=O)[C@H](CCCCN)NC(=O)[C@@H](NC(=O)[C@H](CC(C)C)NC(=O)[C@@H](NC(=O)[C@H](Cc1ccccc1)NC(=O)[C@@H](NC(=O)CN)C(C)C)[C@@H](C)O)[C@@H](C)CC)[C@@H](C)O)C(=O)NCC(=O)N[C@@H](CCCCN)C(=O)N[C@H](C(=O)N[C@@H](CC(C)C)C(=O)NCC(=O)N[C@@H](CCCCN)C(=O)N[C@@H](CCC(=O)O)C(=O)N[C@H](C(=O)NCC(=O)N[C@@H](CCCCN)C(=O)N[C@H](C(=O)NCC(=O)N[C@@H](CC(C)C)C(=O)N[C@@H](CCC(=O)O)C(=O)N[C@@H](CC(C)C)C(=O)N[C@@H](CCSC)C(=O)N[C@@H](C)C(=O)N[C@H]1CSSC[C@@H](C(=O)O)NC(=O)[C@H](CCC(N)=O)NC(=O)[C@H](CCCCN)NC(=O)[C@H]([C@@H](C)O)NC(=O)[C@H]([C@@H](C)CC)NC(=O)[C@H](CCCCN)NC1=O)[C@@H](C)O)C(C)C)[C@@H](C)O [GVFTLIKGATQLIGKTLGKEVGKTGLELMACKITKQC]
1.41 (≈ 4.7 µg/mL) | 1.41 (≈ 4.7 µg/mL) | 1.41 (≈ 4.7 µg/mL) | 2.83 (≈ 9.39 µg/mL) | CC[C@H](C)[C@H](NC(=O)[C@H](CC(C)C)NC(=O)[C@H](CC(C)C)NC(=O)[C@H](CC(=O)O)NC(=O)[C@H](CCCCN)NC(=O)[C@@H](NC(=O)[C@@H](NC(=O)CNC(=O)[C@H](CCSC)NC(=O)[C@@H](NC(=O)[C@@H](N)CO)C(C)C)[C@@H](C)O)C(C)C)C(=O)NCC(=O)N[C@@H](C)C(=O)NCC(=O)N[C@@H](CCCCN)C(=O)N[C@@H](CO)C(=O)N[C@@H](C)C(=O)N[C@@H](C)C(=O)N[C@@H](CCC(N)=O)C(=O)N[C@@H](CO)C(=O)N[C@H](C(=O)N[C@@H](CC(C)C)C(=O)N[C@@H](CCCCN)C(=O)N[C@@H](CO)C(=O)N[C@@H](CC(C)C)C(=O)N[C@@H](CO)C(=O)N[C@H]1CSSC[C@@H](C(=O)O)NC(=O)[C@H](CC(=O)O)NC(=O)[C@H](CC(N)=O)NC(=O)[C@H](CO)NC(=O)[C@H]([C@@H](C)CC)NC(=O)[C@H](CCCCN)NC1=O)C(C)C [SVMGTVKDLLIGAGKSAAQSVLKSLSCKISNDC]
≥ 94.1 | > 94.1 | ≥ 94.1 | > 94.1 | CC(C)C[C@H](NC(=O)[C@H](CCC(=O)O)NC(=O)[C@@H]1CCCN1C(=O)[C@H](CCC(=O)O)NC(=O)[C@@H](NC(=O)[C@H](C)NC(=O)[C@H](C)NC(=O)[C@@H](N)CC(=O)O)C(C)C)C(=O)N[C@@H](Cc1ccc(O)cc1)C(=O)N[C@@H](Cc1cnc[nH]1)C(=O)N[C@@H](Cc1c[nH]c2ccccc12)C(=O)NCC(=O)N[C@@H](CCCCN)C(=O)N[C@H](C(=O)N[C@@H](Cc1c[nH]c2ccccc12)C(=O)N[C@@H](CC(C)C)C(=O)N1CCC[C@H]1C(=O)N[C@@H](CC(N)=O)C(=O)O)C(C)C [DAAVEPELYHWGKVWLPN]
1.49 (≈ 3.2 µg/mL) | 2.92 (≈ 6.29 µg/mL) | 2.92 (≈ 6.29 µg/mL) | 2.92 (≈ 6.29 µg/mL) | CC[C@H](C)[C@H](NC(=O)CN)C(=O)N[C@@H](Cc1ccccc1)C(=O)NCC(=O)N[C@@H](CCCCN)C(=O)N[C@H](C(=O)N[C@@H](CC(C)C)C(=O)NCC(=O)N[C@H](C(=O)NCC(=O)N[C@@H](CCCCN)C(=O)N[C@@H](CCCCN)C(=O)N[C@H](C(=O)N[C@@H](CC(C)C)C(=O)N[C@H]1CSSC[C@@H](C(=O)O)NC(=O)[C@H](CCSC)NC(=O)CNC(=O)[C@H](CO)NC(=O)[C@H](CC(C)C)NC(=O)[C@H](CCC(=O)O)NC1=O)[C@@H](C)O)C(C)C)[C@@H](C)CC [GIFGKILGVGKKTLCELSGMC]
4.45 (≈ 15.8 µg/mL) | 4.45 (≈ 15.8 µg/mL) | 2.22 (≈ 7.9 µg/mL) | 2.22 (≈ 7.9 µg/mL) | CC[C@H](C)[C@H](NC(=O)[C@H](C)NC(=O)[C@H](CC(C)C)NC(=O)[C@H](CCC(=O)O)NC(=O)[C@H](CCCCN)NC(=O)[C@H](Cc1ccccc1)NC(=O)[C@@H](NC(=O)[C@H](CO)NC(=O)[C@H](CC(C)C)NC(=O)[C@H](Cc1ccccc1)NC(=O)[C@@H](N)CO)[C@@H](C)O)C(=O)N[C@@H](CC(N)=O)C(=O)N[C@@H](C)C(=O)N[C@@H](C)C(=O)N[C@@H](CCCCN)C(=O)N[C@@H](CC(N)=O)C(=O)N[C@@H](C)C(=O)NCC(=O)N[C@@H](CCC(N)=O)C(=O)N[C@@H](CO)C(=O)N[C@@H](CC(C)C)C(=O)N[C@@H](CC(C)C)C(=O)N[C@@H](Cc1cnc[nH]1)C(=O)N[C@H](C(=O)N[C@@H](CC(C)C)C(=O)N[C@@H](CO)C(=O)N[C@H]1CSSC[C@@H](C(=O)O)NC(=O)[C@H]([C@@H](C)O)NC(=O)[C@H](CCCCN)NC(=O)[C@H](CC(=O)O)NC(=O)[C@H](CC(C)C)NC(=O)[C@H](CCCCN)NC1=O)[C@@H](C)O [SFLSTFKELAINAAKNAGQSLLHTLSCKLDKTC]
3.16 (≈ 10.5 µg/mL) | 3.16 (≈ 10.5 µg/mL) | 6.32 (≈ 21 µg/mL) | 3.16 (≈ 10.5 µg/mL) | CC[C@H](C)[C@H](NC(=O)[C@H](CC(C)C)NC(=O)[C@H](CC(C)C)NC(=O)[C@H](CC(=O)O)NC(=O)[C@H](CCCCN)NC(=O)[C@@H](NC(=O)[C@@H](NC(=O)CNC(=O)[C@H](CCSC)NC(=O)[C@@H](NC(=O)[C@@H](N)CO)C(C)C)[C@@H](C)O)C(C)C)C(=O)NCC(=O)N[C@@H](C)C(=O)NCC(=O)N[C@@H](CCCCN)C(=O)N[C@@H](CO)C(=O)N[C@@H](C)C(=O)N[C@@H](C)C(=O)N[C@@H](CCC(N)=O)C(=O)N[C@@H](CO)C(=O)N[C@H](C(=O)N[C@@H](CC(C)C)C(=O)N[C@@H](CCCCN)C(=O)N[C@@H](C)C(=O)N[C@@H](CC(C)C)C(=O)N[C@@H](CO)C(=O)N[C@H]1CSSC[C@@H](C(=O)O)NC(=O)[C@H](CC(=O)O)NC(=O)[C@H](CCCCN)NC(=O)[C@H](CO)NC(=O)[C@H](CC(C)C)NC(=O)[C@H](CCCCN)NC1=O)C(C)C [SVMGTVKDLLIGAGKSAAQSVLKALSCKLSKDC]
0.494 (≈ 2.4 µg/mL) | 0.247 (≈ 1.2 µg/mL) | 0.247 (≈ 1.2 µg/mL) | 0.247 (≈ 1.2 µg/mL) | CC[C@H](C)[C@H](NC(=O)CNC(=O)[C@H](CCCCN)NC(=O)CNC(=O)[C@@H](NC(=O)[C@H](Cc1ccccc1)NC(=O)[C@H](CCCCN)NC(=O)[C@H](CO)NC(=O)[C@H](Cc1ccccc1)NC(=O)[C@H](CC(C)C)NC(=O)CN)C(C)C)C(=O)N[C@@H](CCCCN)C(=O)N[C@@H](CC(N)=O)C(=O)N[C@@H](Cc1ccccc1)C(=O)N[C@@H](CC(C)C)C(=O)N[C@H](C(=O)N[C@@H](CCCCN)C(=O)NCC(=O)N[C@H](C(=O)N[C@@H](CCCCN)C(=O)N[C@@H](Cc1cnc[nH]1)C(=O)N[C@H](C(=O)NCC(=O)N[C@@H](CCCCN)C(=O)N[C@@H](CCC(=O)O)C(=O)N[C@H](C(=O)NCC(=O)N[C@@H](CCSC)C(=O)N[C@@H](CC(=O)O)C(=O)N[C@H](C(=O)N[C@H](C(=O)N[C@@H](CCCN=C(N)N)C(=O)N[C@H](C(=O)NCC(=O)N[C@H](C(=O)N[C@@H](CC(=O)O)C(=O)N[C@H](C(=O)N[C@@H](C)C(=O)NCC(=O)N[C@H]1CSSC[C@@H](C(=O)O)NC(=O)[C@H](C(C)C)NC(=O)CNC(=O)[C@H](CCCCN)NC(=O)[C@H]([C@@H](C)CC)NC(=O)[C@H](CCCCN)NC1=O)C(C)C)[C@@H](C)CC)C(C)C)[C@@H](C)CC)C(C)C)C(C)C)[C@@H](C)CC)C(C)C)[C@@H](C)CC [GLFSKFVGKGIKNFLIKGVKHIGKEVGMDVIRVGIDVAGCKIKGVC]
≥ 91.4 | > 91.4 | ≥ 91.4 | > 91.4 | C[C@@H](O)[C@H](NC(=O)[C@H](CO)NC(=O)[C@H](Cc1ccccc1)NC(=O)[C@@H](N)Cc1ccccc1)C(=O)N[C@@H](CO)C(=O)N[C@H]1CSSC[C@@H](C(=O)O)NC(=O)CNC(=O)[C@H](CO)NC(=O)[C@H](CCCN=C(N)N)NC1=O [FFSTSCRSGC]
0.803 (≈ 2.5 µg/mL) | 1.61 (≈ 5 µg/mL) | 3.21 (≈ 9.99 µg/mL) | 0.803 (≈ 2.5 µg/mL) | CC[C@H](C)[C@@H]1NC(=O)[C@H](CCCCN)NC(=O)[C@@H](NC(=O)[C@H](CCCCN)NC(=O)[C@H](CC(C)C)NC(=O)[C@H](CC(N)=O)NC(=O)[C@H](CC(=O)O)NC(=O)[C@H](CC(C)C)NC(=O)[C@H](CC(C)C)NC(=O)[C@H](CC(N)=O)NC(=O)CNC(=O)[C@H](C)NC(=O)[C@H](CCSC)NC(=O)[C@H](CC(N)=O)NC(=O)[C@H](CCCCN)NC(=O)[C@H](C)NC(=O)[C@@H](NC(=O)[C@H](CC(N)=O)NC(=O)[C@H](CCCCN)NC(=O)[C@H](C)NC(=O)[C@@H](NC(=O)[C@H](CC(=O)O)NC(=O)[C@H](CCSC)NC(=O)[C@H](Cc2ccccc2)NC(=O)CN)[C@@H](C)O)C(C)C)CSSC[C@@H](C(=O)O)NC(=O)[C@H](C)NC(=O)[C@H](CCCCN)NC(=O)[C@H]([C@@H](C)O)NC1=O [GFMDTAKNVAKNMAGNLLDNLKCKITKAC]
≥ 188 | > 188 | ≥ 188 | > 188 | CC(C)C[C@H](NC(=O)CNC(=O)[C@@H]1CCCN1C(=O)[C@H](CC(C)C)NC(=O)[C@@H](N)Cc1ccccc1)C(=O)N[C@@H](CCC(=O)O)C(=O)N[C@@H](CS)C(=O)N[C@H](C(=O)N[C@@H](Cc1c[nH]c2ccccc12)C(=O)O)C(C)C [FLPGLECVW]
